Laboratory results reported in patent US20180103668A1, “CYCLOHEXANECARBOXYLIC ACIDS FOR SELECTIVE TASTE MASKING” (INTERNATIONAL FLAVORS & FRAGRANCES INC., priority 2015, published 2018).

Experiments:
[1] = Bitter taste-masking effect; conditions: for Intensity Score (bitter taste-masking effect): 10 ppm in water, caffeine 0.07%, scale 0 to 10: 0=total masking, 2=intense masking, 5=moderate masking, 8=weak masking, 10=no masking; for bitter taste-masking effect (in words): 10 ppm, caffeine solution 0.07%
Experimental: (§1) A series of cyclohexanecarboxylic acid solutions in the following were prepared (10 ppm in water):
(§2) Caffeine solution (0.07% by weight in water) was prepared and used to evaluate the bitter taste-masking effect of cyclohexanecarboxylic acids, which is expressed using an intensity scale of 0 to 10, where 0=total masking, 2=intense masking, 5=moderate masking, 8=weak masking and 10=no masking.

[2] = Sour taste-masking effect; conditions: 10 ppm in water; scale 0 to 10: 0=total masking, 2=intense masking, 5=moderate masking, 8=weak masking, 10=no masking; same in both lactic acid and citric acid
Experimental: as §1
as §2, with “Lactic acid solution (0.09% by weight in water) and citric acid” for “Caffeine”, “were” for “was”, “used, respectively,” for “used”, “sour” for “bitter”

| Structure (SMILES) | Intensity Score (bitter taste-masking effect) [1] | bitter taste-masking effect (in words) [1] | Intensity Score (sour taste-masking effect) [2] |
| --- | --- | --- | --- |
| O=C(/C=C/c1ccc(O)c(O)c1)O[C@@H]1[C@H](O)C[C@@](O)(C(=O)O)C[C@H]1OC(=O)/C=C/c1ccc(O)c(O)c1 [Formula IV, (1S,3R,4R,5R)-3,4-bis[[3-(3,4-dihydroxyphenyl)-1-oxo-2-propenyl]oxy]-1,5-dihydroxy-cyclohexanecarboxylic acid] | 2 | particularly intense and lasting bitter taste-masking effect | 8 |
| O=C(/C=C/c1ccc(O)c(O)c1)OC1C[C@@](O)(C(=O)O)C[C@@H](OC(=O)/C=C/c2ccc(O)c(O)c2)[C@@H]1O (stereo partly drawn) [Formula V, (1α,3R,4α,5R)-3,5-bis[[3-(3,4-dihydroxyphenyl)-1-oxo-2-propen-1-yl]oxy]-1,4-dihydroxy-cyclohexanecarboxylic acid] | 3 | particularly intense and lasting bitter taste-masking effect | 8 |
| O=C(/C=C/c1ccc(O)c(O)c1)O[C@H]1[C@H](O)C[C@](O)(C(=O)O)C[C@H]1OC(=O)/C=C/c1ccc(O)c(O)c1 [Formula VI, (1R,3R,4S,5R)-3,4-bis[[3-(3,4-dihydroxyphenyl)-1-oxo-2-propen-1-yl]oxy]-1,5-dihydroxy-cyclohexanecarboxylic acid] | 2 | particularly intense and lasting bitter taste-masking effect | 8 |
